Tests used:
Format in all cases: biochemical
[1] = biological target: T1, CcbF (Streptomyces caelestis, UniProt E9JES7); test: LC-MS, in vitro cascade with Ccb5 and Ccb4; details: PLP-dependent; coupled with Ccb5 and Ccb4 to intermediate 45
T1 construct: recombinant celesticetin biosynthetic protein; construct not described in main text
T1 sequence (E9JES7 1-416): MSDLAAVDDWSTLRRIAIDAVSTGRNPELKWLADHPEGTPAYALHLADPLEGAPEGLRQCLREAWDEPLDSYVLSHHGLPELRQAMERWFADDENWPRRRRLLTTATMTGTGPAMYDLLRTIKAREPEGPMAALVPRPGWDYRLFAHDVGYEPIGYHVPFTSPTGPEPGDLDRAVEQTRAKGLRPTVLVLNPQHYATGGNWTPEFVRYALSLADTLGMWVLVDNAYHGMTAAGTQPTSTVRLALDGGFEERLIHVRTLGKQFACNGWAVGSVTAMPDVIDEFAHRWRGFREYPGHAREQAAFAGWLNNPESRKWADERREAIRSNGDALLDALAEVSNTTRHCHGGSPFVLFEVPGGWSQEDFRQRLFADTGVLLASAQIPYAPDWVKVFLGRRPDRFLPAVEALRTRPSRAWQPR

[2] = biological target: T2, Ccb2 (Streptomyces caelestis, UniProt E9JET8); test: LC-MS detection of acyl-AMP conjugate; details: ATP
T2 construct: recombinant, heterologously produced in and purified from E. coli; 548 residues
T2 sequence (E9JET8 1-548): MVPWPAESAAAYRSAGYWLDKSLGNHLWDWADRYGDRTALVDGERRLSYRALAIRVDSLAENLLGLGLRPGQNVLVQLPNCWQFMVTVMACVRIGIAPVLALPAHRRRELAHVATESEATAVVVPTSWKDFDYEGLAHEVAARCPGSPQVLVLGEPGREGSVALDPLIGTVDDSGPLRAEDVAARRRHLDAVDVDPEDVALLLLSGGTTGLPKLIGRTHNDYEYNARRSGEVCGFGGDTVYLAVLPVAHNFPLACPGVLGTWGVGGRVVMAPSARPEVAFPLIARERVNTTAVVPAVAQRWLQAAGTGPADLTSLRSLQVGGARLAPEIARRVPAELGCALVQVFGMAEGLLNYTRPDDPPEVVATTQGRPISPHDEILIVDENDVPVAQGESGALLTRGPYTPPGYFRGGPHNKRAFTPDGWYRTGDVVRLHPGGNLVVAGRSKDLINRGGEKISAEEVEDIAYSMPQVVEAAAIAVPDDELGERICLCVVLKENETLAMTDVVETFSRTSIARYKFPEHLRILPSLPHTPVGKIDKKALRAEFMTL

[3] = biological target: T1, CcbF; test: LC-MS, in vitro cascade with Ccb5 with or without Ccb4; details: PLP-dependent; coupled with Ccb5

CCC[C@@H]1C[C@@H](C(=O)N[C@@H]([C@H]2O[C@H](SC[C@H](N)C(=O)O)[C@H](O)[C@@H](O)[C@H]2O)[C@@H](C)O)N(C)C1 [2a, lincomycin intermediate 2a]
LC-MS, in vitro cascade with Ccb5 and Ccb4 [1]: in vitro processing of lincomycin intermediate 2a by the celesticetin biosynthetic proteins CcbF, Ccb5, and Ccb4

O=C(O)c1ccccc1 [compound 6, benzoic acid]
LC-MS detection of acyl-AMP conjugate [2]: We detected products

CCC[C@H]1CN[C@H](C(=O)N[C@@H]([C@H]2O[C@H](SC[C@H](N)C(=O)O)[C@H](O)[C@@H](O)[C@H]2O)[C@@H](C)O)C1 [1a, lincomycin intermediate 1a]
LC-MS, in vitro cascade with Ccb5 with or without Ccb4 [3]: Lincomycin intermediates 1a and 2a processed by celesticetin biosynthetic proteins
